Laboratory results taken from ChEMBL document CHEMBL1201862, “PubChem BioAssay data set” (2004).
Calls of active or inactive are those of the source.

How the values were obtained:
[1] = blockers of HIV-1 envelope-mediated cell-cell fusion – cherry-pick, dose response (AID 652057); format: functional, cell-based
[2] = P. falciparum Dd2 growth inhibitors, dose response, SYBR Green, cherry-picked samples (AID 1159567); format: functional, cell-based
[3] = toxicity to human hepatoma HepG2 cells – cell-based, cherry-picked samples, cytotoxicity control, dose response (AID 1159577); format: functional
[4] = HIV-1 AD8 envelope cell-cell fusion blockers – cherry-pick, dose response (AID 652062); format: functional, cell-based;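 also: luciferase signal from cell-cell fusion driven by HIV-1 clade B AD8 Env; potency is for inhibitors of fusion seen as a drop in luminescence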
[5] = blockers of HIV-1 ZM109 envelope-driven cell-cell fusion – HeLa effector, CEM target cells, luciferase, cherry-pick, dose response (AID 652058); format: functional, cell-based;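 also: luciferase signal from HIV-1 Env mediated cell-cell fusion of effector and target cells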
[6] = IGROV1 cell killing – plate reader, dry powder samples, PAX8 inhibitor project, dose response (AID 743043); format: functional, cell-based; details: IGROV-1
Paired box protein Pax-8 = Paired box protein Pax-8 (Homo sapiens, UniProt Q06710); assay: PAX8 transcriptional activity inhibition in RMG-I – RMG-I cells, luciferase, cherry-pick, dose response (AID 687027); format: functional, cell-based;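 also: luciferase reporter driven by Pax8 target thyroperoxidase promoter measured by SteadyGlo luminescence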
[7] = general cell-killing toxicity readout – plate reader, dry powder samples, cytotoxicity control for PAX8 inhibitor project, dose response (AID 743021); format: functional, cell-based
[8] = OVCAR-3 cell viability loss – plate reader, dry powder samples, PAX8 inhibitor project, dose response (AID 743044); format: functional, cell-based
HeLa = assay: viability loss in HeLa cells – cell-based, ATP luminescence, cherry-pick samples, cytotoxicity control, dose response (AID 687004); format: functional; details: Homo sapiens
[9] = general mammalian cell viability loss – activator set, cherry-pick, cytotoxicity control for miR-122 modulator project, dose response (AID 720690); format: functional, cell-based;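 also: HEK293T human cells scored for general mammalian cytotoxicity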
[10] = growth inhibition of PfATP4-mutant resistant parasites – NITD609-resistant line, SYBR Green, dry powder, dose response (AID 1159571); format: functional, cell-based;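 also: parasites synchronized at ring stage by sorbitol before testing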
[11] = Dd2 malaria parasite growth inhibition potency – SYBR Green, dry powder samples, dose response (AID 1159566); format: functional, cell-based;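 also: potency for growth inhibition with lower SYBR green DNA signal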
[12] = growth inhibition of yeast DHODH-expressing 3D7 parasites – SYBR Green, dry powder samples, dose response (AID 1159570); format: functional, cell-based;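 also: parasite growth measured after 72 hours of compound exposure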
[13] = toxicity to human HepG2 hepatoma cells – cell-based, plate reader, dry powder samples, cytotoxicity control, dose response (AID 1159569); format: functional;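 also: inhibitor potency with signal falling toward the positive control level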
[14] = molecular target: NAD-dependent protein deacylase sirtuin-5, mitochondrial (Homo sapiens, UniProt Q9NXA8); assay: blockers of sirtuin-5 peptide desuccinylation – biochemical, fluorescence imaging, cherry-pick, set 6, dose response (AID 720597)
[15] = viability loss in HEK293 kidney cells – cell-based, cherry-picks, set 5, cytotoxicity control, dose response (AID 1053117); format: functional
cells = format: functional, cell-based
[16] = molecular target: T1, Nuclear receptor subfamily 0 group B member 1 (Homo sapiens, UniProt P51843); format: functional, cell-based;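 also: HEK293T cells transfected with SF-1 and DAX-1 plus StAR promoter luciferase reporter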
T1 sequence (P51843 whole entry): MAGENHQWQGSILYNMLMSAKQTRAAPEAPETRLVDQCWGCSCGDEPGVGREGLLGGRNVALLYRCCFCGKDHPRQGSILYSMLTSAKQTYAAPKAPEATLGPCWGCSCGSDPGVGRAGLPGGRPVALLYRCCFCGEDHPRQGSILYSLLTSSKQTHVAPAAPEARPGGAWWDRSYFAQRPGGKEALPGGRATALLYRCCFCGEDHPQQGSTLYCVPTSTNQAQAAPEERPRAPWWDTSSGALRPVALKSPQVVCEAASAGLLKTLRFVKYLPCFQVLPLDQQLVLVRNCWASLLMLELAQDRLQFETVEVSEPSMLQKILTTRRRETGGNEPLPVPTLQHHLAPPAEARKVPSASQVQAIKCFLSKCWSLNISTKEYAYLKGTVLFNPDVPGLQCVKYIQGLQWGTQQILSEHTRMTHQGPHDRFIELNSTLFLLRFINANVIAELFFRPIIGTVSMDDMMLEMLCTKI

[17] = Counterscreen for activators of the function of SWI/SNF related, matrix associated, actin dependent regulator of chromatin, subfamily a, member 2 (SMARCA2, BRM): Luminescence-based cell-based high throughput dose response assay to identify non-selective compounds using the VP16 reporter assay.; format: functional
[18] = molecular target: SWI/SNF-related matrix-associated actin-dependent regulator of chromatin subfamily A member 2 (Homo sapiens, UniProt P51531); assay: Luminescence-based cell-based high throughput dose response assay to identify activators of the function of SWI/SNF related, matrix associated, actin dependent regulator of chromatin, subfamily a, member 2 (SMARCA2, BRM).; format: functional
Sequence of SWI/SNF-related matrix-associated actin-dependent regulator of chromatin subfamily A member 2 (P51531 whole entry): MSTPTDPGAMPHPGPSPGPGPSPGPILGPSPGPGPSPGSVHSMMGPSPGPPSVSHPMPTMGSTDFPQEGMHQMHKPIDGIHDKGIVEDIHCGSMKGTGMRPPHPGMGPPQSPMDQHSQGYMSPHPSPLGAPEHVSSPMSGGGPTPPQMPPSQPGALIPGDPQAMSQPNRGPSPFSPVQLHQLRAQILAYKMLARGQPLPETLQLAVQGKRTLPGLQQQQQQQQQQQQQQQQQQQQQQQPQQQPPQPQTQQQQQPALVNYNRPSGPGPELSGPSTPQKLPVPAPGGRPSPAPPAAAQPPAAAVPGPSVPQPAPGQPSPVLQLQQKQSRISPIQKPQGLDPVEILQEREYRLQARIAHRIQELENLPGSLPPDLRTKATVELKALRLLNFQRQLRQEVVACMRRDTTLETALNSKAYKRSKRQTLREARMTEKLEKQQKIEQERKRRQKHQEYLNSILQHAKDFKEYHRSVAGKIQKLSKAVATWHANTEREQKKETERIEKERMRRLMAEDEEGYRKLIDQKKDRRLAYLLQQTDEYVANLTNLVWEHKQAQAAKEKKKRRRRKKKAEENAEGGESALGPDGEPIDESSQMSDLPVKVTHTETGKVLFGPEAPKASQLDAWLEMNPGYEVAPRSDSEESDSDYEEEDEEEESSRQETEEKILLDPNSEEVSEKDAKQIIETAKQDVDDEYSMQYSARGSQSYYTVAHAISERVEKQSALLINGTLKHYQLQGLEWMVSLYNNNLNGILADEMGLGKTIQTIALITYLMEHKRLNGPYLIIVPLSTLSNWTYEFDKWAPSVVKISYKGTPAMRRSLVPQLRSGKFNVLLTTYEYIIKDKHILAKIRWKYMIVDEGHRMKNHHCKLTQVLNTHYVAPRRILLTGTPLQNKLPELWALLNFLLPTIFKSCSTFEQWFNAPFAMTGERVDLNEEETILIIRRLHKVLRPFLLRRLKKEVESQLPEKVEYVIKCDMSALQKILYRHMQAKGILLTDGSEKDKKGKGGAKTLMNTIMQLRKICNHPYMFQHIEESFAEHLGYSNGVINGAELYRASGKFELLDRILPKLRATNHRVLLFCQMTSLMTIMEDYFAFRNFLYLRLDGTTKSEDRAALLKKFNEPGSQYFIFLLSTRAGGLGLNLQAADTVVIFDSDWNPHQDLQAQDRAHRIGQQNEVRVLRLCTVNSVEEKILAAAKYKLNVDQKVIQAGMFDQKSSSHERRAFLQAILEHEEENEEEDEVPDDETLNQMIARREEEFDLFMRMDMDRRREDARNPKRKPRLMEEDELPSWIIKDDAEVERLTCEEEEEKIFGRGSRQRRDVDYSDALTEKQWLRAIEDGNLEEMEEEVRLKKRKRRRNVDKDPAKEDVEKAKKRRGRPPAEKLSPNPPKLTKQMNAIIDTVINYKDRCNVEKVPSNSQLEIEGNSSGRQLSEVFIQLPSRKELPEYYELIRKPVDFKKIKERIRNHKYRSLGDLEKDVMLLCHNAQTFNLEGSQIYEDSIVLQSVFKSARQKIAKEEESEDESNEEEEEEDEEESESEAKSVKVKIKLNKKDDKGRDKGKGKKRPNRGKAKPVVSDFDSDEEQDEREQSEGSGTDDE

Sequence of NAD-dependent protein deacylase sirtuin-5, mitochondrial (Q9NXA8 whole entry): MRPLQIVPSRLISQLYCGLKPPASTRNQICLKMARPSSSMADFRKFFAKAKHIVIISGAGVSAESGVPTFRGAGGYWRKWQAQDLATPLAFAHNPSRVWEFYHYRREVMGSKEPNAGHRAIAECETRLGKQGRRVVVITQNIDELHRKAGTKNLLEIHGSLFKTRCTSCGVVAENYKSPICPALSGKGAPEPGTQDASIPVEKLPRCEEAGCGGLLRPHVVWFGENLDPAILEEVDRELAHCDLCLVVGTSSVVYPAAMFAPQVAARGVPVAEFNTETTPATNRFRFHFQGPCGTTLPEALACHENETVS
Sequence of Paired box protein Pax-8 (Q06710 whole entry): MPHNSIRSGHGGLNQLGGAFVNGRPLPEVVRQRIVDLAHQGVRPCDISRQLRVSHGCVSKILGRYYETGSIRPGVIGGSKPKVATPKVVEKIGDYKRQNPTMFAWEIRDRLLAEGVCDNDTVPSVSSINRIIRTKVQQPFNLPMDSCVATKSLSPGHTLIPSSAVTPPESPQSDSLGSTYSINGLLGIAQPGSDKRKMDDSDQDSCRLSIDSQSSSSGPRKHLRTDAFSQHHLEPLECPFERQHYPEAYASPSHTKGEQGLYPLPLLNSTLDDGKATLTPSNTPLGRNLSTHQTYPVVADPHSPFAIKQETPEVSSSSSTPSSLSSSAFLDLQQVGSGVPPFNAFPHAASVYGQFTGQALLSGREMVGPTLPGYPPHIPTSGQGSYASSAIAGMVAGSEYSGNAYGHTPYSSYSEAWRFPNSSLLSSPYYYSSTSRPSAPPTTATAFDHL

C[C@@H]1CN([C@@H](C)CO)C(=O)Cc2cc(NC(=O)Nc3ccc4c(c3)OCO4)ccc2O[C@H]1CN(C)Cc1ccc(Cl)c(Cl)c1
AC50 [1]: 23.5 µM (active)
AC50 [2]: 5.32 µM (active)
AC50 [3]: > 39 µM (inactive)
AC50 [4]: 25 µM (active)
AC50 [5]: 21.8 µM (active)

O=C(Nc1cccc(F)c1)N1CCCCN2[C@H](CO)[C@@H](c3ccc(-c4ccccc4F)cc3)[C@H]2C1
AC50 [6]: 50.9 µM (active)
AC50 (Paired box protein Pax-8): 10.2 µM (active)
AC50 [7]: 57.4 µM (active)
AC50 [8]: 21.9 µM (active)

C[C@@H]1CN([C@@H](C)CO)C(=O)c2cccc(NS(C)(=O)=O)c2O[C@@H]1CN(C)C(=O)Nc1ccc2c(c1)OCO2
AC50 (HeLa): 21.1 µM (active)

C[C@H]1CN([C@@H](C)CO)S(=O)(=O)c2ccc(C#Cc3ccccc3F)cc2O[C@@H]1CN(C)C(=O)c1ccc2c(c1)OCO2
AC50 [9]: 19.5 µM (active)
AC50 [10]: 1.71 µM (active)
AC50 [2]: 1.66 µM (active)
AC50 [11]: 1.55 µM (active)
AC50 [12]: 2.06 µM (active)
AC50 [13]: 33.7 µM (active)

CN(C)C(=O)c1cccc(-c2ccccc2[C@H]2[C@@H](C#N)N(C(=O)C3CC3)[C@@H]2CO)c1
AC50 [14]: > 32 µM (inactive)

CCCC#Cc1ccc2c(c1)O[C@@H](CN(C)C(=O)Nc1ccccc1F)[C@H](C)CN([C@H](C)CO)S2(=O)=O
AC50 [14]: > 30 µM (inactive)

C[C@H](CO)N1C[C@H](C)[C@H](CN(C)C(=O)c2cccc(F)c2)Oc2ncc(-c3ccccc3)cc2C1=O
AC50 [15]: > 52 µM (inactive)

COc1ccc(-c2ccc([C@H]3[C@@H]4CN(S(=O)(=O)c5cccc(C)c5)C[C@H]3N4)cc2)cc1
AC50 [10]: 1.86 µM (active)
AC50 [2]: 1.99 µM (active)
AC50 [3]: > 39 µM (inactive)
AC50 [11]: 2 µM (active)
AC50 [12]: 1.48 µM (active)
AC50 [13]: 20.8 µM (active)

COc1ccc(OC)c(-c2nnc3n2N=C(c2ccc(OC)c(OC4CCOC4)c2)CS3)c1 (stereo not given)
IC50 (cells): > 67.5 µM (inactive)
AC50 (Paired box protein Pax-8): 2.71 µM (active)
IC50 [16]: > 67.5 µM (inactive)

O=Cc1ccc2noc(-c3ccc(Cl)cc3)c2c1
EC50 [17]: > 91.2 µM (inactive)
EC50 [18]: > 91.1 µM (inactive)
